Tests used:
Ephrin type-A receptor 8 = Ephrin type-A receptor 8 (Homo sapiens, UniProt P29322); experiment: Inhibition of Nano Luc-fused full length C-terminal EPHA8 (unknown origin) expressed in HEK293T cells using NanoGlo as substrate incubated for 2 hrs in presence of tracer by NanoBRET assay; type: cell-based
Ephrin type-A receptor 4 = Ephrin type-A receptor 4 (Homo sapiens, UniProt P54764); note: assay method not described here
Homo sapiens [1] = organism: Homo sapiens; note: assay method not described here
[2] = target: Adenosylhomocysteinase (Homo sapiens) (UniProt P23526); note: assay method not described here
[3] = target: Fructose-bisphosphate aldolase A (Homo sapiens) (UniProt P04075); note: assay method not described here
[4] = target: Serine/threonine-protein kinase A-Raf (Homo sapiens) (UniProt P10398); note: assay method not described here
[5] = target: Mitotic checkpoint protein BUB3 (Homo sapiens) (UniProt O43684); note: assay method not described here
[6] = target: CDK5 and ABL1 enzyme substrate 1 (Homo sapiens) (UniProt Q8TDN4); note: assay method not described here
[7] = target: Calcium/calmodulin-dependent protein kinase type II subunit delta (Homo sapiens) (UniProt Q13557); note: assay method not described here
[8] = target: Cullin-associated NEDD8-dissociated protein 1 (Homo sapiens) (UniProt Q86VP6); note: assay method not described here
[9] = target: T-complex protein 1 subunit epsilon (Homo sapiens) (UniProt P48643); note: assay method not described here
[10] = target: Cell division cycle 5-like protein (Homo sapiens) (UniProt Q99459); note: assay method not described here
[11] = target: Cyclin-dependent kinase 1 (Homo sapiens) (UniProt P06493); note: assay method not described here
[12] = target: Clathrin light chain A (Homo sapiens) (UniProt P09496); note: assay method not described here
[13] = target: Coatomer subunit beta (Homo sapiens) (UniProt P53618); note: assay method not described here
[14] = target: Casein kinase I isoform delta (Homo sapiens) (UniProt P48730); note: assay method not described here
[15] = target: Probable ATP-dependent RNA helicase DDX20 (Homo sapiens) (UniProt Q9UHI6); note: assay method not described here
[16] = target: Transcriptional repressor p66-alpha (Homo sapiens) (UniProt Q86YP4); note: assay method not described here
[17] = target: Aspartate aminotransferase, cytoplasmic (Homo sapiens) (UniProt P17174); note: assay method not described here
[18] = target: Calcium/calmodulin-dependent protein kinase kinase 2 (Homo sapiens) (UniProt Q96RR4); note: assay method not described here
[19] = target: Trifunctional enzyme subunit beta, mitochondrial (Homo sapiens) (UniProt P55084); note: assay method not described here
Homo sapiens [20] = organism: Homo sapiens; remark: listed apart in the source; note: assay method not described here
[21] = target: Dual specificity mitogen-activated protein kinase kinase 1 (Homo sapiens) (UniProt Q02750); note: assay method not described here
[22] = target: S-adenosylmethionine synthase isoform type-2 (Homo sapiens) (UniProt P31153); note: assay method not described here
[23] = target: Protein LYRIC (Homo sapiens) (UniProt Q86UE4); note: assay method not described here
[24] = target: NADH dehydrogenase [ubiquinone] 1 alpha subcomplex subunit 5 (Homo sapiens) (UniProt Q16718); note: assay method not described here
[25] = target: NADH dehydrogenase [ubiquinone] iron-sulfur protein 3, mitochondrial (Homo sapiens) (UniProt O75489); note: assay method not described here
[26] = target: Serine/threonine-protein kinase NLK (Homo sapiens) (UniProt Q9UBE8); note: assay method not described here
Homo sapiens [27] = organism: Homo sapiens; remark: listed apart in the source; note: assay method not described here
[28] = target: GPI-anchor transamidase component PIGS (Homo sapiens) (UniProt Q96S52); note: assay method not described here
[29] = target: Proteasome subunit alpha type-1 (Homo sapiens) (UniProt P25786); note: assay method not described here
[30] = target: Proteasome subunit alpha type-5 (Homo sapiens) (UniProt P28066); note: assay method not described here
[31] = target: Ras-related protein Rab-7a (Homo sapiens) (UniProt P51149); note: assay method not described here
[32] = target: Large ribosomal subunit protein P1 (Homo sapiens) (UniProt P05386); note: assay method not described here
[33] = target: Dolichyl-diphosphooligosaccharide--protein glycosyltransferase subunit 2 (Homo sapiens) (UniProt P04844); note: assay method not described here
[34] = target: Deoxynucleoside triphosphate triphosphohydrolase SAMHD1 (Homo sapiens) (UniProt Q9Y3Z3); note: assay method not described here
[35] = target: Protein salvador homolog 1 (Homo sapiens) (UniProt Q9H4B6); note: assay method not described here
[36] = target: Serine hydroxymethyltransferase, mitochondrial (Homo sapiens) (UniProt P34897); note: assay method not described here
[37] = target: Tricarboxylate transport protein, mitochondrial (Homo sapiens) (UniProt P53007); note: assay method not described here
[38] = target: Microtubule cross-linking factor 3 (Homo sapiens) (UniProt Q5TF21); note: assay method not described here
[39] = target: Serine/threonine-protein kinase STK11 (Homo sapiens) (UniProt Q15831); note: assay method not described here
[40] = target: Tropomyosin alpha-3 chain (Homo sapiens) (UniProt P06753); note: assay method not described here
[41] = target: Valine--tRNA ligase (Homo sapiens) (UniProt P26640); note: assay method not described here
[42] = target: Exportin-7 (Homo sapiens) (UniProt Q9UIA9); note: assay method not described here
[43] = target: Exportin-T (Homo sapiens) (UniProt O43592); note: assay method not described here
[44] = target: 5'-3' exoribonuclease 2 (Homo sapiens) (UniProt Q9H0D6); note: assay method not described here
5'-3' exoribonuclease 2 (Homo sapiens), sequence (Q9H0D6 whole entry): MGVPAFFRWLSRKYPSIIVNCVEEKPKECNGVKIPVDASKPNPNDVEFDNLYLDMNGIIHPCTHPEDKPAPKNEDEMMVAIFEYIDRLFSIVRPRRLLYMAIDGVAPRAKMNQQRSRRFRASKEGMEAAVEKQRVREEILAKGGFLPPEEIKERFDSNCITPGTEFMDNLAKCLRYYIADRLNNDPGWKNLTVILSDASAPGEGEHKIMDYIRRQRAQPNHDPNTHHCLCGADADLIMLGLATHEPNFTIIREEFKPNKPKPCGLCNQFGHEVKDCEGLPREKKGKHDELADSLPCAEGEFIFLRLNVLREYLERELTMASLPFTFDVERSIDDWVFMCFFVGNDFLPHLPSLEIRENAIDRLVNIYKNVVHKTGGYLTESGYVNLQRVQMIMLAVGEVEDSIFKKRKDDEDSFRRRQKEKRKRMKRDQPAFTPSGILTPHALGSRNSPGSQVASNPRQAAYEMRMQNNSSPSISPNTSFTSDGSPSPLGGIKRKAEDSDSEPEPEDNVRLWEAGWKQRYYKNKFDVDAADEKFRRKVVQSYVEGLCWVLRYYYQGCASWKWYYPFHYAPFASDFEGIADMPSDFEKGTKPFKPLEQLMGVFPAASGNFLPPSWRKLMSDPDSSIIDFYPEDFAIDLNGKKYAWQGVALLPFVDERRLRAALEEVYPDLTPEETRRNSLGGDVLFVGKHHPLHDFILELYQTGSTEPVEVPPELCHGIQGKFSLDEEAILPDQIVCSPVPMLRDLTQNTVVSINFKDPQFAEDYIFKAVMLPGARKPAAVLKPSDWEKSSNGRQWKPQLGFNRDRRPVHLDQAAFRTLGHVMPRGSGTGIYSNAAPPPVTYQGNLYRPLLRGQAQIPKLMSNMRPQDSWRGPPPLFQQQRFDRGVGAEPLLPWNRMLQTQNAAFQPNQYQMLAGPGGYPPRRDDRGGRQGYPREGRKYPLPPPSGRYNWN

Ephrin type-A receptor 8, sequence (P29322 whole entry, the tested form may be a part): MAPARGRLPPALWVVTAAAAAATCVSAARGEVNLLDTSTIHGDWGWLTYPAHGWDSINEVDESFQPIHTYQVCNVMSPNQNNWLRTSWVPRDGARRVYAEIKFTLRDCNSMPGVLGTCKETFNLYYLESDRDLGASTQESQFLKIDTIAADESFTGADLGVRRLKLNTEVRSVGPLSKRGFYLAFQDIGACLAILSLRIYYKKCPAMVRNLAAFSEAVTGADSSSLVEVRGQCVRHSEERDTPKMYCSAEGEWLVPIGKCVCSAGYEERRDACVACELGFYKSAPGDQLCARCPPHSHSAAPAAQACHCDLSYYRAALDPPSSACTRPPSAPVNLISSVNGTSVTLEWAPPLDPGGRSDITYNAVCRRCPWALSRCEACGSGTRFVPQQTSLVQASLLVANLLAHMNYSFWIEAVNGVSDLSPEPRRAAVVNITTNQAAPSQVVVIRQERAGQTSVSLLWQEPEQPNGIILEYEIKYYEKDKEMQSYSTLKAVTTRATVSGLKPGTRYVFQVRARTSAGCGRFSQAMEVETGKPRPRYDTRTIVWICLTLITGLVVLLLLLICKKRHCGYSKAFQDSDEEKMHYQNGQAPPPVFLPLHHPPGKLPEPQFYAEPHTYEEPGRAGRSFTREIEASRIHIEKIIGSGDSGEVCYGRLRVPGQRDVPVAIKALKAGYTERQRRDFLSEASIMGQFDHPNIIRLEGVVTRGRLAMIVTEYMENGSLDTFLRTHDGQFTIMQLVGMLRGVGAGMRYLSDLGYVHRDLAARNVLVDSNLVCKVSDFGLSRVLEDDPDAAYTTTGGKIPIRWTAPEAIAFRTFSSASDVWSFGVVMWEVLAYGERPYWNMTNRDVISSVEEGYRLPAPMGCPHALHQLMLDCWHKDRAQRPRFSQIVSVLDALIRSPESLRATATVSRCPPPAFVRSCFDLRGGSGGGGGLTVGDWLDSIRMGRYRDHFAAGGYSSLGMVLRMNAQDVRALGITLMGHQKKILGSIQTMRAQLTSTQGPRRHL
Coatomer subunit beta (Homo sapiens), sequence (P53618 whole entry, canonical isoform): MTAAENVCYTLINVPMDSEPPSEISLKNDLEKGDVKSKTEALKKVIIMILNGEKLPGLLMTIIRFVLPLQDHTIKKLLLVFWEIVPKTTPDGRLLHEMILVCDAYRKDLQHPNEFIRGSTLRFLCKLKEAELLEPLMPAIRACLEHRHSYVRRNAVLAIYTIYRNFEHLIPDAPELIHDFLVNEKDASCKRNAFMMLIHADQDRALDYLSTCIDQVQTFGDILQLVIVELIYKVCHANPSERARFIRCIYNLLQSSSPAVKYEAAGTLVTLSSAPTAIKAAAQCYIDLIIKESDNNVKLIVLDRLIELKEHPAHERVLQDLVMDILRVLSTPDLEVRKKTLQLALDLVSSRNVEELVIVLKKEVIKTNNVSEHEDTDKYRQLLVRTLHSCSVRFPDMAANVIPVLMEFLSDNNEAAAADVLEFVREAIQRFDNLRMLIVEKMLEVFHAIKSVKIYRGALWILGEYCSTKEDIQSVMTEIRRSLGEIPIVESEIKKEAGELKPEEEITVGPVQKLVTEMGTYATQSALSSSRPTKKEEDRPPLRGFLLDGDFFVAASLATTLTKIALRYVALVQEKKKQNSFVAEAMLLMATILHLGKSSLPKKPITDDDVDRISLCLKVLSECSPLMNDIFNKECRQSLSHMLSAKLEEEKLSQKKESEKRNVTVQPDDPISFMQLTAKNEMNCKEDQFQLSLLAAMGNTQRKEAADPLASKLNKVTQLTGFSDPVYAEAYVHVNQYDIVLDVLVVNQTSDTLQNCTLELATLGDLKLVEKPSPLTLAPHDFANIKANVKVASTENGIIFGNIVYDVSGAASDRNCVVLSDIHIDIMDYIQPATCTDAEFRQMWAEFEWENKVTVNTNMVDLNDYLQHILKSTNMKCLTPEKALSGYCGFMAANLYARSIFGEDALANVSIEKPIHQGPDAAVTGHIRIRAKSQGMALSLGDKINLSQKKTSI
Transcriptional repressor p66-alpha (Homo sapiens), sequence (Q86YP4 whole entry): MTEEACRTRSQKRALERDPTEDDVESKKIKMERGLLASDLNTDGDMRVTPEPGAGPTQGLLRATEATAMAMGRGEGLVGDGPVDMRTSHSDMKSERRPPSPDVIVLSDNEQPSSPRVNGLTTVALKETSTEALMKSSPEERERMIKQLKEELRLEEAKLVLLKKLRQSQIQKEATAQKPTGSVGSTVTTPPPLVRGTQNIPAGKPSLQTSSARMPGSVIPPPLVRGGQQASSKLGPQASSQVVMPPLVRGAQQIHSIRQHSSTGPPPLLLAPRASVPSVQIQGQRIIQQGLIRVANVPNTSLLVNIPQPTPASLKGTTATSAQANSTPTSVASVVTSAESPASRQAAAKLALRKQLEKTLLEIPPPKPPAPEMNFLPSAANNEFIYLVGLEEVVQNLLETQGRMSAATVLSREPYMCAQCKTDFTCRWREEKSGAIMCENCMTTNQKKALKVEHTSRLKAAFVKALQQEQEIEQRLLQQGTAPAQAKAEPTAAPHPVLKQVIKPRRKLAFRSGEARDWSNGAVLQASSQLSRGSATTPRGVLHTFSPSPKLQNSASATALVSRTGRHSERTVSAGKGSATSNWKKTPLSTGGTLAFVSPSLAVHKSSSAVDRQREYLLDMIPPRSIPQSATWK
NADH dehydrogenase [ubiquinone] iron-sulfur protein 3, mitochondrial (Homo sapiens), sequence (O75489 whole entry): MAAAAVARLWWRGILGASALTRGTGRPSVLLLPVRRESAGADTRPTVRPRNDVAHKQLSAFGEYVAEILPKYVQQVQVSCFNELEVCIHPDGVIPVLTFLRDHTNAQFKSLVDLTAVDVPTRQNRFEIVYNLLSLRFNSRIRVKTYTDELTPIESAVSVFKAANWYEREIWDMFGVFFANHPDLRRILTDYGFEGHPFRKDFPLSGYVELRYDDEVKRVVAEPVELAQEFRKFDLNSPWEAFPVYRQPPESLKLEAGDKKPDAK
Valine--tRNA ligase (Homo sapiens), sequence (P26640 whole entry): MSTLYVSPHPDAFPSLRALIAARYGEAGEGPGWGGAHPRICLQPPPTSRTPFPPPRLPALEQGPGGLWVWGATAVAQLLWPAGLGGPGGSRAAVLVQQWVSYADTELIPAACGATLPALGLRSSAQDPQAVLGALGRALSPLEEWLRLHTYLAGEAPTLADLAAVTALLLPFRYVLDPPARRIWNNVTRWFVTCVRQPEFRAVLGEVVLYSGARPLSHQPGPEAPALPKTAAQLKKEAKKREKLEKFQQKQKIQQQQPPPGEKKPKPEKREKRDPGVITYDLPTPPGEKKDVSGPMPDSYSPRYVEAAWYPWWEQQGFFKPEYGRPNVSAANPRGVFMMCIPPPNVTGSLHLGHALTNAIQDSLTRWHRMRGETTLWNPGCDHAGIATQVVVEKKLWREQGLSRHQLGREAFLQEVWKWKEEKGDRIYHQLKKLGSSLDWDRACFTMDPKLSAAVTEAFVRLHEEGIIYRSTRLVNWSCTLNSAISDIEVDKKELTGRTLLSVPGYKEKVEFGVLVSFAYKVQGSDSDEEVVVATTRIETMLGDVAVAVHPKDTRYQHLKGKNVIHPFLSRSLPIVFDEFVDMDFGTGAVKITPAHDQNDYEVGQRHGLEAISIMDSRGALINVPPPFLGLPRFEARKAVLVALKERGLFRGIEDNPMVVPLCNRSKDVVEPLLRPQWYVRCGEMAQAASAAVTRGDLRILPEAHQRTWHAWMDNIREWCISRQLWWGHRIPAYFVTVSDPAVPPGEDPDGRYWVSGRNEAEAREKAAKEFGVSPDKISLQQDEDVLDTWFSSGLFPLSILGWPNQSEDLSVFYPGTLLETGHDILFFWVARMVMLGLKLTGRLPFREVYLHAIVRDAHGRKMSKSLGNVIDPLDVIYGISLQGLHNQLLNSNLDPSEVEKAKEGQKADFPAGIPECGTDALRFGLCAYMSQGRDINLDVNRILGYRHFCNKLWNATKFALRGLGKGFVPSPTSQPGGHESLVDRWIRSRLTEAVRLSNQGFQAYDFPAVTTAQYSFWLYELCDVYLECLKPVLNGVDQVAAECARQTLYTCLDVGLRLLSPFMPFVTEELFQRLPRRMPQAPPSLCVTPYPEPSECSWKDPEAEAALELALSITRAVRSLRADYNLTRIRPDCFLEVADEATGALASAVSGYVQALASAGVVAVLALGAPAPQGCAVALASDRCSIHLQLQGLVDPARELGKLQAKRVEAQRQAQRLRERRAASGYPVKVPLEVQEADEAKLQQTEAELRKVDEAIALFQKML

Cc1ccc(C(=O)Nc2cccc(C(F)(F)F)c2)cc1Nc1nc(-c2cccnc2)nc2c1cnn2C
IC50 (Ephrin type-A receptor 8): 0.0012 µM
ED50 (Ephrin type-A receptor 4): 1.13 µM
ED50 (Homo sapiens [1]): 3.01 µM
ED50 [2]: 4.94 µM
ED50 [3]: 3.97 µM
ED50 [4]: 13.1 µM
ED50 [5]: 0.00528 µM
ED50 [6]: 0.993 µM
ED50 [7]: 0.11 µM
ED50 [8]: 0.11 µM
ED50 [9]: 0.000216 µM
ED50 [10]: 9.84 µM
ED50 [11]: 3.8 µM
ED50 [12]: 0.55 µM
ED50 [13]: 0.813 µM
ED50 [14]: 10.4 µM
ED50 [15]: 0.616 µM
ED50 [16]: 3.46 µM
ED50 [17]: 6.82 µM
ED50 [18]: 0.112 µM
ED50 [19]: 0.655 µM
ED50 (Homo sapiens [20]): 2.84 µM
ED50 [21]: 0.00367 µM
ED50 [22]: 11.2 µM
ED50 [23]: 4.51 µM
ED50 [24]: 5.05 µM
ED50 [25]: 4.77 µM
ED50 [26]: 0.00185 µM
ED50 (Homo sapiens [27]): 0.878 µM
ED50 [28]: 0.0298 µM
ED50 [29]: 10.4 µM
ED50 [30]: 2.11 µM
ED50 [31]: 6.59 µM
ED50 [32]: 0.0125 µM
ED50 [33]: 0.874 µM
ED50 [34]: 0.00363 µM
ED50 [35]: 13.4 µM
ED50 [36]: 58.3 µM
ED50 [37]: 4.38 µM
ED50 [38]: 11.9 µM
ED50 [39]: 2.39 µM
ED50 [40]: 5.57 µM
ED50 [41]: 2.39 µM
ED50 [42]: 0.0517 µM
ED50 [43]: 1.22 µM
ED50 [44]: 0.547 µM

Cc1ccc(C(=O)Nc2cccc(C(F)(F)F)c2)cc1Nc1nc(-c2cccnc2)nc2nn(C)cc12
IC50 (Ephrin type-A receptor 8): 0.21 µM
ED50 (Ephrin type-A receptor 4): 5.1 µM
ED50 (Homo sapiens [1]): 0.135 µM
ED50 [2]: 0.0533 µM
ED50 [3]: 0.0716 µM
ED50 [4]: 2.15 µM
ED50 [5]: 0.0679 µM
ED50 [6]: 0.175 µM
ED50 [7]: 0.0386 µM
ED50 [8]: 1.74 µM
ED50 [9]: 0.0516 µM
ED50 [10]: 0.0985 µM
ED50 [11]: 7.91 µM
ED50 [12]: 0.0659 µM
ED50 [13]: 0.928 µM
ED50 [14]: 0.0638 µM
ED50 [15]: 0.0285 µM
ED50 [16]: 0.041 µM
ED50 [17]: 0.842 µM
ED50 [18]: 10.2 µM
ED50 [19]: 0.00935 µM
ED50 (Homo sapiens [20]): 0.0194 µM
ED50 [21]: 0.0574 µM
ED50 [22]: 0.0257 µM
ED50 [23]: 6.82 µM
ED50 [24]: 0.253 µM
ED50 [25]: 0.002 µM
ED50 [26]: 0.0242 µM
ED50 (Homo sapiens [27]): 0.217 µM
ED50 [28]: 0.255 µM
ED50 [29]: 9.78 µM
ED50 [30]: 214 µM
ED50 [31]: 0.44 µM
ED50 [32]: 16600 µM
ED50 [33]: 0.0603 µM
ED50 [34]: 12.8 µM
ED50 [35]: 0.356 µM
ED50 [36]: 0.345 µM
ED50 [37]: 4.79 µM
ED50 [38]: 0.00526 µM
ED50 [39]: 0.018 µM
ED50 [40]: 18.9 µM
ED50 [41]: 0.0195 µM
ED50 [42]: 0.0173 µM
ED50 [43]: 0.0299 µM
ED50 [44]: 0.0114 µM
